One assay deals with T1, EGFR (Homo sapiens, UniProt P00533).
T1 construct: The intracellular portion of EGFR started at nucleotide 2189 (corresponding to amino acid 667) and ended at the termination codon; made in house; host or cells: Sf9 insect cells (baculovirus)
Description: EGFR Kinase Assay. In kind it is biochemical. The conditions noted are these: for inhibition at 2 µM: test concentration of 2 μM, compounds without an IC50, read-out: EGFR inhibition in percent; for IC50: GST-EGFR, ATP 5 μM. Summed up:
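Potency came from triplicate 16-point half-log titrations starting at 200 uM, with IC50 fitted from % inhibition against log concentration, or % inhibition at 2 μM otherwise. Reaction: Sf9-made GST–EGFR cytoplasmic region (aa 667 onward), biotin-polyGluTyr, 5 μM ATP with 33P tracer, pH 8.0 Tris/Mg/vanadate/DTT, 30 °C for 1 h; captured on streptavidin Flashplates and counted.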

The target of a further assay is T2, Lyn kinase (human) (Homo sapiens, UniProt P07948).
T2 construct: purchased Upstate Biotechnology, Lake Placid, N.Y
The experiment in a line: Lyn Kinase Assay. In kind it is biochemical. The following applies: test concentration of 2 μM; for % Inhibition (Lyn): 2 µM. Summed up:
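Radiometric filter-binding assay with recombinant human Lyn, poly(Glu,Tyr) substrate (0.1 mg/mL final), 5 μM ATP plus γ-33P-ATP in MOPS pH 7.5/Mg acetate buffer; 40 min at 30 °C, stopped with phosphoric acid, counted by scintillation. Reported as percent inhibition at 2 μM, with IC50 (μM) where determined.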

From patent US7579356B2, “Thia-tetraazaacenaphthylene kinase inhibitors” (Janssen Pharmaceutica NV, priority 2005, dated 2009) come the findings set out here.

One may read the inhibition as the change of the read-out against control, counted positive when it falls. As a reminder, the IC50 is the midpoint of a concentration-inhibition curve. Low readings indicate greater potency in that assay, high ones weaker potency in that assay.

SMILES strings stand for the structures. Values joined by “and” are separate entries in the source; they are usually repeats but may differ in a detail not shown here. Equal values may be shown once.

T2 sequence (P07948 whole entry): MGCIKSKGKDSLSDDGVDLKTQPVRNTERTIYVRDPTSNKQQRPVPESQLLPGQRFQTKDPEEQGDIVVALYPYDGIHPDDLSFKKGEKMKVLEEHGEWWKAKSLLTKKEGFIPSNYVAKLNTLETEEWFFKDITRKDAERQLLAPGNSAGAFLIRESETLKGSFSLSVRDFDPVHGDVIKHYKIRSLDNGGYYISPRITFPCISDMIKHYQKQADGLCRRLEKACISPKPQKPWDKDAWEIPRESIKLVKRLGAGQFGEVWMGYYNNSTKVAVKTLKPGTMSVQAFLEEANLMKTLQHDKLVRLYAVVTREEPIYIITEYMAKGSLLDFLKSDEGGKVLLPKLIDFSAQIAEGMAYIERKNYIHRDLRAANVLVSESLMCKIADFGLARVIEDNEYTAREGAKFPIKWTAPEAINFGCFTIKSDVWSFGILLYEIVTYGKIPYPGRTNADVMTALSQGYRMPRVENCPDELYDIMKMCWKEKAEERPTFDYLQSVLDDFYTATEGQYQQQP
T1 sequence (P00533 669-1210 limits assumed): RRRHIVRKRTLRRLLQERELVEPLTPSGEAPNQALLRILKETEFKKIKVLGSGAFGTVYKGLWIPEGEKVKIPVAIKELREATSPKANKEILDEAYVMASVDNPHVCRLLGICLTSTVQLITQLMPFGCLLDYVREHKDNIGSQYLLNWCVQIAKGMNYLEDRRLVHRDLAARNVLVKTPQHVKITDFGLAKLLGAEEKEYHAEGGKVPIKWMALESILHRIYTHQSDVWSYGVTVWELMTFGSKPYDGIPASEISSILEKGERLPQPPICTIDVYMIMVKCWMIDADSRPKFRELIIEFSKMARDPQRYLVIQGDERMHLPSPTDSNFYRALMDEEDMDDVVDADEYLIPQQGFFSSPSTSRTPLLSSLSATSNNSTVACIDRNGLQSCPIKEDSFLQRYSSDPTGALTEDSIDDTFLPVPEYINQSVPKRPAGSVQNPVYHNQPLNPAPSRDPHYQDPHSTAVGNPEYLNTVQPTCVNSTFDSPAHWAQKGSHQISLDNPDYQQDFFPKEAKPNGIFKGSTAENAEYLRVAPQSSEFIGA

Regarding `COc1cc(N2C(=O)Nc3c(C(=O)Nc4ccc(CN5CCCC5)cc4)sc4ncnc2c34)c(Cl)cc1Cl` [Cpd 43, 5-(2,4-dichloro-5-methoxy-phenyl)-4-oxo-4,5-dihydro-3H-1-thia-3,5,6,8-tetraaza-acenaphthylene-2-carboxylic acid (4-pyrrolidin-1-ylmethyl-phenyl)-amide], the inhibition at 2 µM at EGFR amounted to 47%; against Lyn kinase (human), 71%.
For the compound `COc1ccc(Cl)c(N2C(=O)Nc3c(C(=O)Nc4ccc(OC)c(OC)c4)sc4ncnc2c34)c1` [Cpd 49, 5-(2-chloro-5-methoxy-phenyl)-4-oxo-4,5-dihydro-3H-1-thia-3,5,6,8-tetraaza-acenaphthylene-2-carboxylic acid (3,4-dimethoxy-phenyl)-amide], the inhibition at 2 µM at EGFR is 25%; against Lyn kinase (human) it was 50%.
`COc1ccc(Cl)c(N2C(=O)Nc3c(C(=O)Nc4ccc(OCCN5CCOCC5)c(OC)c4)sc4ncnc2c34)c1` [Cpd 50, 5-(2-chloro-5-methoxy-phenyl)-4-oxo-4,5-dihydro-3H-1-thia-3,5,6,8-tetraaza-acenaphthylene-2-carboxylic acid [3-methoxy-4-(2-morpholin-4-yl-ethoxy)-phenyl]-amide]: the results for the inhibition at 2 µM at EGFR and on Lyn kinase (human) were 30% and 60%, respectively.
Regarding `COc1ccc(Cl)c(N2C(=O)Nc3c(C(=O)Nc4ccc(CN5CCOCC5)cc4)sc4ncnc2c34)c1` [Cpd 51, 5-(2-chloro-5-methoxy-phenyl)-4-oxo-4,5-dihydro-3H-1-thia-3,5,6,8-tetraaza-acenaphthylene-2-carboxylic acid (4-morpholin-4-ylmethyl-phenyl)-amide], the inhibition at 2 µM came to 53% at EGFR and 70% against Lyn kinase (human).
For the compound `COC(=O)c1sc2ncnc3c2c1NC(=O)N3c1c(Cl)ccc2c1OCO2` [Cpd 54, 5-(5-chloro-benzo[1,3]dioxol-4-yl)-4-oxo-4,5-dihydro-3H-1-thia-3,5,6,8-tetraaza-acenaphthylene-2-carboxylic acid methyl ester], the inhibition at 2 µM at EGFR was found to be 25%; against Lyn kinase (human), 52%.
For `COc1cc(N2C(=O)Nc3c(C(=O)Nc4ccc(CN5CCN(C)CC5)cc4)sc4ncnc2c34)c(Cl)cc1Cl` [Cpd 60], the inhibition at 2 µM at EGFR came to 29%; against Lyn kinase (human), 50%.
`O=C(Nc1ccc(CN2CCOCC2)cc1)c1sc2ncnc3c2c1NC(=O)N3c1c(Cl)ccc2c1OCO2` [Cpd 62, 5-(5-chloro-benzo[1,3]dioxol-4-yl)-4-oxo-4,5-dihydro-3H-1-thia-3,5,6,8-tetraaza-acenaphthylene-2-carboxylic acid (4-morpholin-4-ylmethyl-phenyl)-amide] returned an IC50 on EGFR of 356 nM. For the same compound, the inhibition at 2 µM at Lyn kinase (human) came to 92%.
In turn, `O=C(O)c1sc2ncnc3c2c1NC(=O)N3c1ccc2c(ccn2Cc2cccc(F)c2)c1` [Cpd 77, 5-[1-(3-fluoro-benzyl)-1H-indol-5-yl]-4-oxo-4,5-dihydro-3H-1-thia-3,5,6,8-tetraaza-acenaphthylene-2-carboxylic acid] gave an IC50 against EGFR of 164 nM.
`CCOC(=O)c1sc2ncnc3c2c1NC(=O)N3c1ccc2c(cnn2Cc2cccc(F)c2)c1` [Cpd 78, 5-[1-(3-fluoro-benzyl)-1H-indazol-5-yl]-4-oxo-4,5-dihydro-3H-1-thia-3,5,6,8-tetraaza-acenaphthylene-2-carboxylic acid ethyl ester] came in with an IC50 against EGFR of 2220 nM.
Still for that read-out and setting: the value for `O=C(O)c1sc2ncnc3c2c1NC(=O)N3c1ccc2c(cnn2Cc2cccc(F)c2)c1` [Cpd 79, 5-[1-(3-fluoro-benzyl)-1H-indazol-5-yl]-4-oxo-4,5-dihydro-3H-1-thia-3,5,6,8-tetraaza-acenaphthylene-2-carboxylic acid] was 302 nM; that for `O=C(Nc1ccc(CN2CCCCC2)cc1)c1sc2ncnc3c2c1NC(=O)N3c1ccc2c(cnn2Cc2cccc(F)c2)c1` [Cpd 80, 5-[1-(3-fluoro-benzyl)-1H-indazol-5-yl]-4-oxo-4,5-dihydro-3H-1-thia-3,5,6,8-tetraaza-acenaphthylene-2-carboxylic acid (4-piperidin-1-ylmethyl-phenyl)-amide] was 36 nM; that for `O=C(Nc1ccc(CN2CCCCC2)cc1)c1sc2ncnc3c2c1NC(=O)N3c1ccc2c(ccn2Cc2cccc(F)c2)c1` [Cpd 87, 5-[1-(3-fluoro-benzyl)-1H-indol-5-yl]-4-oxo-4,5-dihydro-3H-1-thia-3,5,6,8-tetraaza-acenaphthylene-2-carboxylic acid (4-piperidin-1-ylmethyl-phenyl)-amide] was 113 nM.
The compound `O=C(Nc1ccc(CN2CCCCC2)cc1)c1sc2ncnc3c2c1NC(=O)N3c1ccc(OCc2ccccn2)c(Cl)c1` [Cpd 89, 5-[3-chloro-4-(pyridin-2-ylmethoxy)-phenyl]-4-oxo-4,5-dihydro-3H-1-thia-3,5,6,8-tetraaza-acenaphthylene-2-carboxylic acid (4-piperidin-1-ylmethyl-phenyl)-amide] registered an IC50 at EGFR of 34 nM. Also, at Lyn kinase (human), the “% Inhibition (Lyn)” value was 4% and 0.5%.
The compound `CN1CCN(Cc2ccc(NC(=O)c3sc4ncnc5c4c3NC(=O)N5c3ccc(OCc4ccccn4)c(Cl)c3)cc2)CC1` [Cpd 90, 5-[3-chloro-4-(pyridin-2-ylmethoxy)-phenyl]-4-oxo-4,5-dihydro-3H-1-thia-3,5,6,8-tetraaza-acenaphthylene-2-carboxylic acid [4-(4-methyl-piperazin-1-ylmethyl)-phenyl]-amide] had an IC50 against EGFR of 112 nM. The inhibition at 2 µM on Lyn kinase (human) is -8.1%.
On EGFR, `CC(C)(C)OC(=O)N1CCC(NC(=O)c2sc3ncnc4c3c2NC(=O)N4c2ccc3c(ccn3Cc3cccc(F)c3)c2)CC1` [Cpd 91, 4-({5-[1-(3-fluoro-benzyl)-1H-indol-5-yl]-4-oxo-4,5-dihydro-3H-1-thia-3,5,6,8-tetraaza-acenaphthylene-2-carbonyl}-amino)-piperidine-1-carboxylic acid tert-butyl ester] came in with an IC50 of 168 nM. For the same compound, the inhibition at 2 µM against Lyn kinase (human) is 7%.
For `CN1CCC(NC(=O)c2sc3ncnc4c3c2NC(=O)N4c2ccc3c(ccn3Cc3cccc(F)c3)c2)CC1` [Cpd 92, 5-[1-(3-fluoro-benzyl)-1H-indol-5-yl]-4-oxo-4,5-dihydro-3H-1-thia-3,5,6,8-tetraaza-acenaphthylene-2-carboxylic acid (1-methyl-piperidin-4-yl)-amide], half-maximal inhibition at EGFR (IC50) required 45 nM.
With `O=C(NCCN1CCOCC1)c1sc2ncnc3c2c1NC(=O)N3c1ccc2c(ccn2Cc2cccc(F)c2)c1` [Cpd 93, 5-[1-(3-fluoro-benzyl)-1H-indol-5-yl]-4-oxo-4,5-dihydro-3H-1-thia-3,5,6,8-tetraaza-acenaphthylene-2-carboxylic acid (2-morpholin-4-yl-ethyl)-amide], half-maximal inhibition on EGFR (IC50) was put at 70 nM. Besides, the inhibition at 2 µM against Lyn kinase (human) came out at 16%.
Regarding `O=C(Nc1ccc(N2CCOCC2)cc1)c1sc2ncnc3c2c1NC(=O)N3c1ccc2c(ccn2Cc2cccc(F)c2)c1` [Cpd 94, 5-[1-(3-fluoro-benzyl)-1H-indol-5-yl]-4-oxo-4,5-dihydro-3H-1-thia-3,5,6,8-tetraaza-acenaphthylene-2-carboxylic acid (4-morpholin-4-yl-phenyl)-amide], the half-inhibitory concentration (IC50) against EGFR is 264 nM. Also, the inhibition at 2 µM against Lyn kinase (human) turned out to be 3%.
The compound `O=C(NCCCN1CCOCC1)c1sc2ncnc3c2c1NC(=O)N3c1ccc2c(ccn2Cc2cccc(F)c2)c1` [Cpd 95, 5-[1-(3-fluoro-benzyl)-1H-indol-5-yl]-4-oxo-4,5-dihydro-3H-1-thia-3,5,6,8-tetraaza-acenaphthylene-2-carboxylic acid (3-morpholin-4-yl-propyl)-amide] registered an IC50 against EGFR of 69 nM. The inhibition at 2 µM against Lyn kinase (human) was 18%.
With `O=C(Nc1ccc(CN2CCCCC2)cc1)c1sc2ncnc3c2c1NC(=O)N3c1ccc(Oc2ccccc2)cc1` [Cpd 96, 4-oxo-5-(4-phenoxy-phenyl)-4,5-dihydro-3H-1-thia-3,5,6,8-tetraaza-acenaphthylene-2-carboxylic acid (4-piperidin-1-ylmethyl-phenyl)-amide], the IC50 on EGFR turned out to be 10 nM. For the same compound, on Lyn kinase (human), the inhibition at 2 µM came out at 27% and the “% Inhibition (Lyn)” value stood at 16.8%.
Taken in the same sequence, the figures for `O=C(Nc1ccc(CN2CCOCC2)cc1)c1sc2ncnc3c2c1NC(=O)N3c1ccc(Oc2ccccc2)cc1` [Cpd 97, 4-oxo-5-(4-phenoxy-phenyl)-4,5-dihydro-3H-1-thia-3,5,6,8-tetraaza-acenaphthylene-2-carboxylic acid (4-morpholin-4-ylmethyl-phenyl)-amide] were 13 nM, 36.5% and 26.6%.
`CN1CCN(Cc2ccc(NC(=O)c3sc4ncnc5c4c3NC(=O)N5c3ccc(Oc4ccccc4)cc3)cc2)CC1` [Cpd 98, 4-oxo-5-(4-phenoxy-phenyl)-4,5-dihydro-3H-1-thia-3,5,6,8-tetraaza-acenaphthylene-2-carboxylic acid [4-(4-methyl-piperazin-1-ylmethyl)-phenyl]-amide]: the 50% inhibitory concentration (IC50) against EGFR was found to be 22 nM. Besides, at Lyn kinase (human), the inhibition at 2 µM amounted to 30.7% and the “% Inhibition (Lyn)” value is 50.0%.
As to `CCOC(=O)c1sc2ncnc3c2c1NC(=O)N3c1cc(Br)ccc1C` [Cpd 103, 5-(5-bromo-2-methyl-phenyl)-4-oxo-4,5-dihydro-3H-1-thia-3,5,6,8-tetraaza-acenaphthylene-2-carboxylic acid ethyl ester], the inhibition at 2 µM on EGFR is 21%.
